# From patent publication US20250319100A1, “ANTI-TUMOR COMBINED PREPARATION COMPRISING HYDROXYPROGESTERONE CAPROATE AND USE THEREOF” (SHENZHEN EVERGREEN THERAPEUTICS CO., LTD., priority 2021, published 2025)
# Experiments:
# 4T1-hPD-L1 cells = test: Tumor growth inhibition in Balb/c mice subcutaneously inoculated with 4T1 cells overexpressing human PD-L1; format: in vivo; details: for Tumor growth inhibition (result in words): FIG. 1, tumor volume growth trend post-administration
# Procedure: Antibody Anti-PD-L1 was purchased from Rongchang Biopharmaceuticals (Yantai) Co., Ltd., batch number: RC98-1-A20170426, with a storage solution concentration of 6.87 mg/ml, dissolved in 0.9% sodium chloride solution. Prior to each administration, the Anti-PD-L1 was prepared by diluting it in 0.9% sodium chloride solution to obtain a concentration of 1 mg/ml.
# Hydroxyprogesterone Caproate (OHPC) was purchased from Hongyan Pharmaceutical and Chemical Co., Ltd., as a powder. Prior to each administration, OHPC powder was dissolved in DMSO. Once fully dissolved, it was diluted in sesame oil to obtain an OHPC concentration of 4 mg/ml for the investigational drug solution.
# Murine breast cancer 4T1 cells were purchased from Beijing Biosynthgene Biotech Co., Ltd. Cells were cultured at 37° C. and 5% CO2 in DMEM culture medium containing 10% inactivated fetal bovine serum. The 4T1 cells were genetically modified using conventional methods to overexpress human PD-L1, and these cells were named 4T1-hPD-1.
# Female Balb/c mice (6-9 weeks old, weighing 16-22 g), SPF grade, were subcutaneously inoculated with 5×10^4 cells/0.1 ml concentration of 4T1-hPD-1 cells suspended in PBS at a volume of 0.1 ml on the right side. When the average tumor volume reached approximately 100 mm3, appropriate mice were selected based on tumor volume and weight and were evenly distributed into four experimental groups, each with 8 mice. Drug administration commenced on the same day as outlined in the table below:
# Throughout the observation period, tumor volume and animal weight were measured weekly, and the values were recorded. Upon completion of the observation period, the experiment was concluded.
# Measurements of tumor volume were conducted twice a week post-grouping using a vernier caliper. Prior to euthanasia, tumor dimensions including the longest and shortest diameters were measured. The formula used to calculate tumor volume: Tumor Volume=0.5×Longest Diameter×Shortest Diameter^2.
# Ti represents the mean tumor volume of the treatment group on day i of drug administration, TO denotes the mean tumor volume of the treatment group on day 0 of drug administration. Vi stands for the mean tumor volume of the solvent control group on day i of drug administration, and VO indicates the mean tumor volume of the solvent control group on day 0 of drug administration.
# Original data from observations and measurements were recorded. Analysis and processing were based on this raw data. Results were expressed as Mean±Standard Error of Mean (SEM). Statistical analysis was performed on tumor volume data, where P<0.05 was considered statistically significant. Analysis was conducted considering both statistical and biological significance.
# [1] = system: CD8+ T cells in tumor tissue; test: Infiltration of CD8+ T cells in tumor tissue (CD8 staining of paraffin tumor sections); format: in vivo, Balb/c mice; details: FIGS. 2 and 3, CD8 staining density IOD/area, p<0.01 OHPC group vs control group
# Procedure: FIG. 2 illustrates the infiltration of CD8 T cells in mouse tumors post-administration (400× magnification). FIG. 3 presents the analysis of CD8 staining density on tumor sections after administration, represented in integrated optical density (IOD)/area, where ** denotes p<0.01 compared between the OHPC group and the control group. At the conclusion of the experiment, tumor tissue was embedded in paraffin, sectioned, and stained for CD markers. This was conducted to compare the infiltration of CD8+ T cells within tumors across different groups.
compound,measurement,setting,value
"CCCCCC(=O)O[C@]1(C(C)=O)CC[C@H]2[C@@H]3CCC4=CC(=O)CC[C@]4(C)[C@H]3CC[C@@]21C [OHPC, 17α-Hydroxyprogesterone caproate]",Tumor Volume Day 17,"4T1-hPD-L1 cells; Day 17, Anti-PD-L1 10 mg/kg intravenous and/or OHPC 20 mg/kg intramuscular, twice per week, Mean ± Standard Error",1203 ± 384 mm^3
same,TGITV (tumor growth inhibition rate by tumor volume),"4T1-hPD-L1 cells; Day 17 versus vehicle (PBS) control, Anti-PD-L1 10 mg/kg intravenous and/or OHPC 20 mg/kg intramuscular, twice per week",−14%
same,Tumor growth inhibition (result in words),4T1-hPD-L1 cells,no inhibitory effect
same,Tumor growth inhibition (result in words),4T1-hPD-L1 cells; listed as hydroxyprogesterone caproate,augments the anti-tumor activity of the monoclonal antibody Anti-PD-L1
same,Tumor Volume Pre-administration,"4T1-hPD-L1 cells; baseline before first dose, Mean ± Standard Error, 8 mice per group",87 ± 24 mm^3
same,Infiltration of CD8+ T cells in tumor tissue (result in words),[1],significantly enhances the infiltration of CD8+ T cells
same,Infiltration of CD8+ T cells in tumor tissue (result in words),[1]; listed as Hydroxyprogesterone Caproate (OHPC),notably enhanced the infiltration of CD8+ T cells
